Experimental findings from patent US5747456A, “Continuous low-dose administration of parathyroid hormone or its agonist” (Beth Israel Deaconess Medical Center, priority 1996, dated 1998) are described below.

pEC50, pIC50: −log10 of the molar value. Non-standard residues stand in square brackets, D forms with d. Residues, ends and D or L forms follow the SMILES beside them. Nle = CCCC[C@H](N)C(=O)O

Experiment [1] has as its system adenylate cyclase in SaOS-2 B10 cells. Put plainly: Adenylate cyclase activity (cyclic AMP) in SaOS-2 B10 cells. In kind it is cell-based, human. Conditions: 1 mM IBMX, 5 min incubation with analog, read-out: EC50 (half maximal stimulation of adenylate cyclase). As to the method:
The adenylate cyclase activity induced by each of Analogs I-V was also measured in SaOS-2 B10 cells as described previously (Rodan et al. 1983 J. Clin. Invest. 72;1511; Goldman et al. 1988 Endocrinology 123, 1468). Confluent SaOS-2 B10 cells in 24 wells plates were incubated 0.5 μCi[^3 H]adenine (26.9 Ci/mmol, New England Nuclear, Boston, Mass.) in fresh medium at 37° C. for 2 hrs, and washed twice with Hank's solution. The cells were treated with 1 mM IBMX [isobutylmethylxanthine, Sigma, St. Louis, Mo.] in fresh medium for 15 min, and a tested PTH analog was added to the medium to incubate for 5 min. The reaction was stopped by the addition of 1.2M TCA followed by sample neutralization with 4N KOH. Cyclic AMP was isolated by the two-column chromatographic method (see Salomon et al. 1974 Anal. Biochem. 58;541). The radioactivity was counted in a scintillation counter (Liquid scintillation counter 2200CA, PACKARD, Downers Grove, Ill.).

Experiment [2] deals with T1, PTH/PTHrP receptor in SaOS-2 B10 cells (Homo sapiens, UniProt Q03431).
T1 construct: endogenous in cells; host or cells: SaOS-2 B10 cells (subclone of the human osteosarcoma line SaOS-2)
T1 sequence (Q03431 27-593): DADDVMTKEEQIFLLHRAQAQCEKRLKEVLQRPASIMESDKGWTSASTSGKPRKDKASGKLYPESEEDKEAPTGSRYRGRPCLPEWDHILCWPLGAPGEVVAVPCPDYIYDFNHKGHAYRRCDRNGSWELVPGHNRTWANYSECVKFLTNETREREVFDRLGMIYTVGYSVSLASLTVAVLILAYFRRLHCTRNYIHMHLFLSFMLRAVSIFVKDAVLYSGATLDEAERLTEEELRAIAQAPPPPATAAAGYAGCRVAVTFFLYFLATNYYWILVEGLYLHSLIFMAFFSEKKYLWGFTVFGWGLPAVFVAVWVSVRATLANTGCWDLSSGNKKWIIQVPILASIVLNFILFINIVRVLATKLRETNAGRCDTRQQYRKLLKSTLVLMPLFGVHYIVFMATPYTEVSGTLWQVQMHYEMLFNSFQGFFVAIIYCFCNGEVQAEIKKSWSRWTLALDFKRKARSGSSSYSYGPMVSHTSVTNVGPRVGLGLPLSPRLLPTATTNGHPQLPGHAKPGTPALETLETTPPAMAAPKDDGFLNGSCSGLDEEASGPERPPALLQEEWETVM
Put plainly: Competition binding of mono-125I-[Nle8,18,Tyr34(3-I125)]bPTH1-34 NH2 to SaOS-2 B10 cells. The note with it: 2 hrs at room temperature, read-out: IC50 (half maximal inhibition of binding of mono-125I-[Nle8,18,Tyr34(3-I125)]bPTH1-34 NH2). Here is the method:
SaOS-2 B10 cells were maintained in RPMI1640 medium supplemented with 10% fetal bovine serum (FBS) and 2 mM glutamine at 37° C. in a humidified atmosphere of 5% CO2 in air. The medium was changed every three or four days, and the cells were subcultured every week by trypsinization.
SaOs-2 B10 cells were maintained for four days after they had reached confluence. The medium was replaced with 5% FBS […] medium and incubated for 2 hrs at room temperature with 10×10^4 cpm mono-^125 -I-[Nle^8,18,Tyr^34 (3-I^125)]bPTH1-34 NH2 in the presence or absence of a competing tested PTH agonist. The cells were washed four times with ice-cold PBS and lysed with 0.1M NaOH, and the radioactivity associated with the cells was counted in a scintillation counter. Synthesis of the radiolabelled [Nle8,18. Tyr^34 (3-I^125)]bPTH1-34 NH2 was carried out as described in Goldman M E et al., Endocrinology, 1988, 123, 1468-1475.
The binding assay was conducted on Analogs I-IV and Analog V (i.e., [Nle^8, Nle^18, Tyr^34 ]bPTH1-34 NH2).

Turning to `CCCC[C@H](NC(=O)[C@H](CO)NC(=O)[C@H](CO)NC(=O)[C@H](CC(C)C)NC(=O)[C@H](Cc1c[nH]cn1)NC(=O)[C@H](CCCCN)NC(=O)CNC(=O)[C@H](CC(C)C)NC(=O)[C@H](CC(N)=O)NC(=O)[C@H](Cc1c[nH]cn1)NC(=O)[C@H](CCCC)NC(=O)[C@H](Cc1ccccc1)NC(=O)[C@H](CCC(N)=O)NC(=O)[C@@H](NC(=O)[C@H](CCC(=O)O)NC(=O)[C@H](CO)NC(=O)[C@@H](NC(=O)[C@H](C)N)C(C)C)[C@@H](C)CC)C(=O)N[C@@H](CCC(=O)O)C(=O)N[C@@H](CCCNC(=N)N)C(=O)N[C@H](C(=O)N[C@@H](Cc1ccccc1)C(=O)N[C@@H](Cc1c[nH]c2ccccc12)C(=O)N[C@@H](CC(C)C)C(=O)N[C@@H](CCCNC(=N)N)C(=O)N[C@@H](CCCCN)C(=O)N[C@@H](CCCCN)C(=O)N[C@@H](CC(C)C)C(=O)N[C@@H](CCC(N)=O)C(=O)N[C@@H](CC(=O)O)C(=O)N[C@H](C(=O)N[C@@H](Cc1c[nH]cn1)C(=O)N[C@@H](CC(N)=O)C(=O)N[C@@H](Cc1ccc(O)cc1)C(N)=O)C(C)C)C(C)C` [Analog I, [Nle^8,18,Phe^22,Tyr^34]bPTH1-34 NH2] (H-AVSEIQF[Nle]HNLGKHLSS[Nle]ERVFWLRKKLQDVHNY-NH2; N-terminus assumed), the pEC50 in experiment [1] was 8.82. Besides, in experiment [2], the negative logarithm of the IC50 (pIC50) is 8.82.
For the compound `CCCC[C@H](NC(=O)[C@H](CO)NC(=O)[C@H](CO)NC(=O)[C@H](CC(C)C)NC(=O)[C@H](Cc1c[nH]cn1)NC(=O)[C@H](CCCCN)NC(=O)CNC(=O)[C@H](CC(C)C)NC(=O)[C@H](CC(N)=O)NC(=O)[C@H](Cc1c[nH]cn1)NC(=O)[C@H](CCCC)NC(=O)[C@H](Cc1ccccc1)NC(=O)[C@H](CCC(N)=O)NC(=O)[C@@H](NC(=O)[C@H](CCC(=O)O)NC(=O)[C@H](CO)NC(=O)[C@@H](NC(=O)[C@H](C)N)C(C)C)[C@@H](C)CC)C(=O)N[C@@H](CCCNC(=N)N)C(=O)N[C@@H](CCCNC(=N)N)C(=O)N[C@H](C(=O)N[C@@H](CCC(=O)O)C(=O)N[C@@H](Cc1c[nH]c2ccccc12)C(=O)N[C@@H](CC(C)C)C(=O)N[C@@H](CCCNC(=N)N)C(=O)N[C@@H](CCCCN)C(=O)N[C@@H](CCCCN)C(=O)N[C@@H](CC(C)C)C(=O)N[C@@H](CCC(N)=O)C(=O)N[C@@H](CC(=O)O)C(=O)N[C@H](C(=O)N[C@@H](Cc1c[nH]cn1)C(=O)N[C@@H](CC(N)=O)C(=O)N[C@@H](Cc1ccc(O)cc1)C(N)=O)C(C)C)C(C)C` [Analog II, [Nle^8,18,Arg^19,Tyr^34]bPTH1-34 NH2] (H-AVSEIQF[Nle]HNLGKHLSS[Nle]RRVEWLRKKLQDVHNY-NH2; N-terminus assumed), in experiment [1], the pEC50 is 8.70. In addition, in experiment [2], the pIC50 is 9.22.
The matching figures for `CCCC[C@H](NC(=O)[C@H](CO)NC(=O)[C@H](CO)NC(=O)[C@H](CC(C)C)NC(=O)[C@H](Cc1c[nH]cn1)NC(=O)[C@H](CCCCN)NC(=O)CNC(=O)[C@H](CC(C)C)NC(=O)[C@H](CC(N)=O)NC(=O)[C@H](Cc1c[nH]cn1)NC(=O)[C@H](CCCC)NC(=O)[C@H](Cc1ccccc1)NC(=O)[C@H](CCC(N)=O)NC(=O)[C@@H](NC(=O)[C@H](CCC(=O)O)NC(=O)[C@H](CO)NC(=O)[C@@H](NC(=O)[C@H](C)N)C(C)C)[C@@H](C)CC)C(=O)N[C@@H](CCC(=O)O)C(=O)N[C@@H](CCCNC(=N)N)C(=O)N[C@@H](CCCNC(=N)N)C(=O)N[C@@H](CCC(=O)O)C(=O)N[C@@H](Cc1c[nH]c2ccccc12)C(=O)N[C@@H](CC(C)C)C(=O)N[C@@H](CCCNC(=N)N)C(=O)N[C@@H](CCCCN)C(=O)N[C@@H](CCCCN)C(=O)N[C@@H](CC(C)C)C(=O)N[C@@H](CCC(N)=O)C(=O)N[C@@H](CC(=O)O)C(=O)N[C@H](C(=O)N[C@@H](Cc1c[nH]cn1)C(=O)N[C@@H](CC(N)=O)C(=O)N[C@@H](Cc1ccc(O)cc1)C(N)=O)C(C)C` [Analog III, [Nle^8,18,Arg^21,Tyr^34]bPTH1-34 NH2] (H-AVSEIQF[Nle]HNLGKHLSS[Nle]ERREWLRKKLQDVHNY-NH2; N-terminus assumed): 9.70 and 9.52.
For `CCCC[C@H](NC(=O)[C@H](CO)NC(=O)[C@H](CO)NC(=O)[C@H](CC(C)C)NC(=O)[C@H](Cc1c[nH]cn1)NC(=O)[C@H](CCCCN)NC(=O)CNC(=O)[C@H](CC(C)C)NC(=O)[C@H](CC(N)=O)NC(=O)[C@H](Cc1c[nH]cn1)NC(=O)[C@H](CCCC)NC(=O)[C@H](Cc1ccccc1)NC(=O)[C@H](CCC(N)=O)NC(=O)[C@@H](NC(=O)[C@H](CCC(=O)O)NC(=O)[C@H](CO)NC(=O)[C@@H](NC(=O)[C@H](C)N)C(C)C)[C@@H](C)CC)C(=O)N[C@@H](CCCNC(=N)N)C(=O)N[C@@H](CCCNC(=N)N)C(=O)N[C@@H](CCCNC(=N)N)C(=O)N[C@@H](CCC(=O)O)C(=O)N[C@@H](Cc1c[nH]c2ccccc12)C(=O)N[C@@H](CC(C)C)C(=O)N[C@@H](CCCNC(=N)N)C(=O)N[C@@H](CCCCN)C(=O)N[C@@H](CCCCN)C(=O)N[C@@H](CC(C)C)C(=O)N[C@@H](CCC(N)=O)C(=O)N[C@@H](CC(=O)O)C(=O)N[C@H](C(=O)N[C@@H](Cc1c[nH]cn1)C(=O)N[C@@H](CC(N)=O)C(=O)N[C@@H](Cc1ccc(O)cc1)C(N)=O)C(C)C` [Analog IV, [Nle^8,18,Arg^19,21,Tyr^34]bPTH1-34 NH2] (H-AVSEIQF[Nle]HNLGKHLSS[Nle]RRREWLRKKLQDVHNY-NH2; N-terminus assumed), the pEC50 in experiment [1] was 9.30. Also, in experiment [2], the pIC50 was 9.52.
On to `CCCC[C@H](NC(=O)[C@H](CO)NC(=O)[C@H](CO)NC(=O)[C@H](CC(C)C)NC(=O)[C@H](Cc1c[nH]cn1)NC(=O)[C@H](CCCCN)NC(=O)CNC(=O)[C@H](CC(C)C)NC(=O)[C@H](CC(N)=O)NC(=O)[C@H](Cc1c[nH]cn1)NC(=O)[C@H](CCCC)NC(=O)[C@H](Cc1ccccc1)NC(=O)[C@H](CCC(N)=O)NC(=O)[C@@H](NC(=O)[C@H](CCC(=O)O)NC(=O)[C@H](CO)NC(=O)[C@@H](NC(=O)[C@H](C)N)C(C)C)[C@@H](C)CC)C(=O)N[C@@H](CCC(=O)O)C(=O)N[C@@H](CCCNC(=N)N)C(=O)N[C@H](C(=O)N[C@@H](CCC(=O)O)C(=O)N[C@@H](Cc1c[nH]c2ccccc12)C(=O)N[C@@H](CC(C)C)C(=O)N[C@@H](CCCNC(=N)N)C(=O)N[C@@H](CCCCN)C(=O)N[C@@H](CCCCN)C(=O)N[C@@H](CC(C)C)C(=O)N[C@@H](CCC(N)=O)C(=O)N[C@@H](CC(=O)O)C(=O)N[C@H](C(=O)N[C@@H](Cc1c[nH]cn1)C(=O)N[C@@H](CC(N)=O)C(=O)N[C@@H](Cc1ccc(O)cc1)C(N)=O)C(C)C)C(C)C` [Analog V, [Nle^8, Nle^18, Tyr^34]bPTH1-34 NH2, reference compound] (H-AVSEIQF[Nle]HNLGKHLSS[Nle]ERVEWLRKKLQDVHNY-NH2; N-terminus assumed), for which the pEC50 in experiment [1] is 8.70. For the same compound, the pIC50 in experiment [2] is 8.82.

For orientation: pEC50 means −log10 of the EC50, conventionally taken in molar units. Usually pIC50 stands for the IC50 on a negative log10 scale, so that one unit is a factor of ten.
